This passage reports melting point results from patent US7115750B1, “Melanin concentrating hormone antagonist” (Takeda Pharmaceutical Company Limited, priority 1999, dated 2006).

Where a name gives a salt, the structure may show the parent alone.

One may read the melting point as the temperature of the solid-liquid transition. Regarding `CN(C)CC1CCc2cc(NC(=O)c3ccc(-c4ccc(C5=NC(C)(C)CO5)cc4)cc3)ccc2C1` (stereo not drawn) [Example 32, N-[6-[(N,N-Dimethylamino)methyl]-5,6,7,8-tetrahydro-2-naphthalenyl]-4′-(4,4-dimethyl-4,5-dihydro-1,3-oxazole 2-yl)[1,1′-biphenyl]-4-carboxamide], the melting point was in the range of 185 to 187 °C.
In the case of `O=C(Nc1ccc2c(c1)CCC(CN1CCCC1)=C2)c1ccc(-c2ccccc2)cc1` [Example 94, N-[6-(1-Pyrrolidinylmethyl)-7,8-dihydro-2-naphthalenyl][1,1′-biphenyl]-4-carboxamide] it was 176 to 177 °C; in that of `N#CC1=C(CN2CCCC2)CCc2cc(NC(=O)c3ccc(-c4ccc(Cl)cc4)cc3)ccc21` [Example 117, 4′-Chloro-N-[5-cyano-6-(1-pyrrolidinylmethyl)-7,8-dihydro-2-naphthalenyl][1,1′-biphenyl]-4-carboxamide], 191 to 192 °C.
Take `CN(C)CC1=Cc2ncc(NC(=O)c3ccc(-c4ccccc4)cc3)cc2CC1` [Example 133, N-[7-[(Dimethylamino)methyl]-5,6-dihydro-3-quinolinyl][1,1′-biphenyl]-4-carboxamide]: the melting point is 202 to 203 °C.
For `Cc1cc(-c2ccncc2)c(C(=O)Nc2ccc(CC(=O)NCCN(C)C)cc2)[nH]1` [Example 197, N-[4-[2-[[2-(Dimethylamino)ethyl]amino]-2-oxoethyl]phenyl]-5-methyl-3-(4-pyridinyl)-1H-pyyrole-2-carboxamide], the melting point was 215 to 218 °C (dec.).
In the case of `CN(C)CC1CCc2cc(NC(=O)c3ccc(-c4cccs4)cc3)ccc2C1` (stereo not drawn) [Example 34, N-[6-[(N,N-Dimethylamino)methyl]-5,6,7,8-tetrahydro-2-naphthalenyl]-4-(2-thienyl) benzamide] it was 165 to 166 °C; in that of `COc1ccc2[nH]c(C)c(CC(=O)Nc3ccc(CC(=O)NCCN(C)C)cc3)c2c1` [Example 188, N-[4-[2-[[2-(Dimethylamino)ethyl]amino]-2-oxoethyl]phenyl]-2-(5-methoxy-2-methyl-1H-indol-3-yl)acetamide], 125 to 126 °C; in that of `COc1ccc(-c2ccc(C(=O)Nc3ccc4c(c3)CCC(CN3CCCC3)=C4)cc2)cc1` [Example 148, 4′-Methoxy-N-[6-(1-pyrrolidinylmethyl)-7,8-dihydro-2-naphthalenyl][1,1′-biphenyl]-4-carboxamide], 187 to 188 °C.
Regarding `Cc1cc(Br)ccc1C(=O)Nc1ccc2c(c1)CCC(CN(C)C)C2` (stereo not drawn) [Example 24, 4-Bromo-N-[6-[(N,N-dimethylamino)methyl]-5,6,7,8-tetrahydro-2-naphthalenyl]-2-methylbenzamide], the melting point lay within 140 to 142 °C.
Compound `CN(C)CC1CCc2cc(NC(=O)c3ccc(-c4ccc(N(C)C)cc4)cc3)ccc2C1` (stereo not drawn) [Example 37, 4′-(N,N-Dimethylamino)-N-[6-[(N,N-dimethylamino)methyl]-5,6,7,8-tetrahydro-2-naphthalenyl][1,1′-biphenyl)-4-carboxamide] yielded a melting point of 212 to 213 °C.
In turn, `O=C(Nc1ccc2c(c1)CCC(CN1CCCC1)=C2)N1CCN(c2ccc(F)cc2)CC1` [Example 100, 4-(4-Fluorophenyl)-N-[6-(1-pyrrolidinylmethyl)-7,8-dihydro-2-naphthalenyl]-1-piperazinecarboxamide] displayed a melting point of 179 to 181 °C.
On to `CN(C)CC1CCc2cc(NC(=O)c3ccc(NC(=O)Nc4ccccc4)cc3)ccc2C1` (stereo not drawn) [Example 8, (4-Anilinocarbonyl)amino-N-[2-(N,N-dimethylamino)methyl-6-tetralinyl]benzamide], for which the melting point is 216 to 217 °C (dec.).
Compound `O=C(Nc1ccc2c(c1)CCC(CCN1CCCC1)=C2)c1ccc(-c2ccc(F)cc2)cc1` [Example 205, 4′-Fluoro-N-[6-[2-(1-pyrrolidinyl)ethyl]-7,8-dihydro-2-naphthalenyl][1,1′-biphenyl]-4-carboxamide] gave a melting point of 187 to 189 °C.
`Cc1ccc(-c2ccc(C(=O)Nc3ccc4c(c3)CCC(CN(C)C)=C4)cc2)cc1` [Example 85]: the melting point was in the range of 195 to 196 °C.
Take `CN(C)CC1COc2cc(NC(=O)c3ccc(-c4ccc(Cl)cc4)cc3)ccc2O1` (stereo not drawn) [Example 106, 4′-Chloro-N-[2-[(dimethylamino)methyl]-2,3-dihydro-1,4-benzodioxin-6-yl][1,1′-biphenyl]-4-carboxamide]: the melting point lay within 215 to 217 °C.
On to `CN(C)CC1CCc2cc(NC(=O)c3ccc4c(c3)C(=O)c3ccccc3-4)ccc2C1` (stereo not drawn) [Example 6, N-[2-(N,N-Dimethylamino)methyl-6-tetralinyl]-9-oxo-9H-fluoren-2-carboxamide], for which the melting point is 224 to 226 °C.
Turning to `O=C(Nc1ccc2c(c1)CCC(CN1CCCCC1)C2)C1CC(=O)N(c2ccccc2)C1` (stereo not drawn) [Example 56, 5-Oxo-1-phenyl-N-[6-(1-piperidinylmethyl)-5,6,7,8-tetrahydro-2-naphthalenyl]-3-pyrrolidinecarboxamide], the melting point was in the range of 162 to 164 °C.
For the compound `O=C(Nc1ccc2c(c1)CCC(CCN1CCCC1)=C2)c1ccc(-c2ccccc2)cc1` [Example 204, N-[6-[2-(1-Pyrrolidinyl)ethyl]-7,8-dihydro-2-naphthalenyl][1,1′-biphenyl]-4-carboxamide], the melting point lay in the range of 184 to 186 °C.
In turn, `CN(C)CC1CCc2cc(NC(=O)c3cccc(-c4ccccc4)c3)ccc2C1` (stereo not drawn) [Example 120, N-[6-[(Dimethylamino)methyl]-5,6,7,8-tetrahydro-2-naphthalenyl][1,1′-biphenyl]-3-carboxamide] registered a melting point of 145 to 148 °C.
`CN(C)CC1CCc2cc(NC(=O)c3ccc(-c4ccc(C(F)(F)F)cc4)cc3)ccc2C1` (stereo not drawn) [Example 29, N-[6-[(N,N-Dimethylamino)methyl]-5,6,7,8-tetrahydro-2-naphthalenyl]-4′-(trifluoromethyl)[1,1-biphenyl]-4-carboxamide] displayed a melting point of 205 to 206 °C.
With `CCCc1ccc(-c2ccc(C(=O)Nc3ccc4c(c3)CCC(CN(C)C)C4)cc2)cc1` (stereo not drawn) [Example 22, N-[6-[(N,N-Dimethylamino)methyl]-5,6,7,8-tetrahydro-2-naphthalenyl]-4′-propyl[1,1′-biphenyl]-4-carboxamide], the melting point lay in the range of 186 to 188 °C.
Consider `CC1=C(CN2CCCC2)CCc2cc(NC(=O)c3ccc(-c4ccccc4)nc3)ccc21` [Example 233, N-[5-Methyl-6-(1-pyrrolidinylmethyl)-7,8-dihydro-2-naphthalenyl]-6-phenylnicotinamide], for which the melting point fell in the range of 178 to 179 °C.
`Cc1cc(C(=O)Nc2ccc3c(c2)CCC(CN(C)C)C3)ccc1-c1ccc(Cl)cc1` (stereo not drawn) [Example 28, 4′-Chloro-N-[6-[(N,N-dimethylamino)methyl]-5,6,7,8-tetrahydro-2-naphthalenyl]-2-methyl[1,1′-biphenyl]-4-carboxamide] had a melting point of 193 to 195 °C.
For `CN(C)CC1CCc2cc(NC(=O)c3ccc(-c4cccnc4)cc3)ccc2C1` (stereo not drawn) [Example 30, N-[6-[(N,N-Dimethylamino)methyl]-5,6,7,8-tetrahydro-2-naphthalenyl]-4-(3-pyridinyl)benzamide], the melting point fell in the range of 177 to 178 °C.
Regarding `CN(C(=O)c1ccc(-c2ccc(F)cc2)cc1)c1ccc2c(c1)CCC(CN1CCCC1)=C2` (as salt: hydrochloride) [Example 226, 4′-Fluoro-N-methyl-N-[6-(1-pyrrolidinylmethyl)-7,8-dihydro-2-naphthalenyl][1,1′-biphenyl]-4-carboxamide Hydrochloride], the melting point was in the range of 201 to 203 °C.
`CN(C)CC1Cc2ccc(NC(=O)c3ccc(-c4ccc(Cl)cc4)cc3)cc2C1` (stereo not drawn) [Example 43, 4′-Chloro-N-[2-[(dimethylamino)methyl]-2,3-dihydro-1H-inden-5-yl][1,1′-biphenyl]-4-carboxamide] displayed a melting point of 192 to 194 °C.
`CN(C)CCC1CCc2cc(NC(=O)c3ccc(-c4ccccc4)cc3)ccc2C1` (stereo not drawn) [Example 209, N-[6-[2-(Dimethylamino)ethyl]-5,6,7,8-tetrahydro-2-naphthalenyl][1,1′-biphenyl]-4-carboxamide] came in with a melting point of 112 to 114 °C.
The figure for `CN(C)CC1=Cc2ccc(NC(=O)c3ccc(-c4ccc(F)cc4F)nc3)cc2CC1` [Example 152, 6-(2,4-Difluorophenyl)-N-[6-[(dimethylamino)methyl]-7,8-dihydro-2-naphthalenyl]nicotinamide] is 162 to 163 °C; for `CN(C)CC1CCc2cc(NC(=O)c3ccc(-c4ccc(-c5ccccc5)cc4)cc3)ccc2C1.Cl` (stereo not drawn) it is 220 °C (dec.).
Regarding `CN(C)CC1=Cc2ccc(NC(=O)c3ccc(-c4ccccc4)cc3)cc2CC1` [Example 47, N-[6-[(Dimethylamino)methyl]-7,8-dihydro-2-naphthalenyl][1,1′-biphenyl]-4-carboxamide], the melting point lay in the range of 173 to 175 °C.
The compound `COc1ccc(CC(=O)Nc2ccc(CC(=O)NCCN(C)C)cc2)cc1OC` [Example 187, 2-(3,4-dimethoxyphenyl)-N-[4-[2-[[2-(dimethylamino)ethyl]amino]-2-oxoethyl]phenyl]acetamide] yielded a melting point of 123 to 124 °C.
The figure for `CN(C)CCNC(=O)Cc1ccc(NC(=O)CCCc2nc(-c3cc4ccccc4o3)no2)cc1` [Example 182, 4-[3-(1-Benzofuran-2-yl)-1,2,4-oxadiazol-5-yl]-N-[4-[2-[[2-(dimethylamino)ethyl]amino]-2-oxoethyl]phenyl]butanamide] is 161 to 163 °C; for `O=C(NCCN1CCCCC1)c1ccc(NC(=O)c2ccc(-c3ccccc3)cc2)cc1` [compound 22, N-[4-[[2-(Piperidinoethyl)amino]carbonyl]phenyl] 4-biphenylylcarboxamide] it is 247 to 252 °C (dec.); for `CN(C)CC1=Cc2ccc(NC(=O)c3ccc(-c4ccccc4)cc3)cc2C1` (hydrate or solvate) [Example 244, N-[2-[(Dimethylamino)methyl]-1H-inden-6-yl][1,1′-biphenyl]-4-carboxamide] it is 187 to 189 °C.
On to `O=C(Nc1ccc2c(c1)CCC(CN1CCCC1)=C2)N1CC=C(c2ccc(Cl)cc2)CC1` [Example 159], for which the melting point fell in the range of 217 to 218 °C.
The compound `CN(C)CC1=Cc2ccc(NC(=O)c3ccc(-c4ccc(F)cc4)nc3)cc2CC1` [Example 151] showed a melting point of 216 to 219 °C.
